From patent US20230405002A1, “COMBINATIONS OF DIACYLGLYCEROL ACYLTRANSFERASE 2 INHIBITORS AND ACETYL-COA CARBOXYLASE INHIBITOR” (Pfizer Inc., priority 2020, published 2023)
Structures can show the parent of a compound that is named as a salt. One block for each compound: values may come before it.

Legend:
human hepatocytes = assay: High throughput intrinsic clearance in human hepatocytes; conditions: high throughput human hepatocyte assay, 1 μM
human liver microsomes = assay: Intrinsic clearance in human liver microsomes; conditions: human liver microsome assay, 1 μM
human DGAT2 (hDGAT2) = human DGAT2 (hDGAT2) (Homo sapiens (Human), UniProt Q96PD7); assay: In vitro DGAT2 assay, determination of IC50 values; assay type: biochemical; conditions: geometric mean; hDGAT2 membrane fraction
[1] = Determination of pKa (capillary electrophoresis); conditions: most basic pKa, mean
[2] = target: DGAT2 in human hepatocytes (Homo sapiens (Human), UniProt Q96PD7); assay: Determination of IC50 values for DGAT2 inhibitors in human hepatocytes; assay type: cell-based; conditions: geometric mean; cryopreserved human hepatocytes, DGAT1 inhibitor 3 μM present
Description: For evaluation of the effects of DGAT2 inhibitors in a cell-based setting, cryopreserved human hepatocytes (Lot DOO, Celsis, Baltimore, MD) were thawed and plated onto type I collagen-coated plates according to the manufacturer's instructions. After 18 hours overnight recovery period, the cells were overlayed with media containing 250 μg/mL Geltrex Basement Membrane Matrix (Thermo Fisher). The following day, media was aspirated and replaced with serum-free Williams Media E (Thermo Fisher) containing 400 μM sodium dodecanoate (Sigma-Aldrich, St. Louis, MO) and 2 mM GlutaMAX (Thermo Fisher). […] DGAT2 inhibitors were then added to the desired final concentration. After a 15 minute preincubation, 0.2 μCi [^14C(U)]-glycerol (Perkin Elmer) was added to each well followed by a 3 hour incubation. At this point the media was removed, and the cells lysed via orbital shaking in isopropyl alcohol: tetrahydrofuran (9:1) for 15 minutes prior to centrifugation at 3000 rpm for 10 minutes. Radiolabeled lipids were resolved using a solvent system by thin layer chromatography with the solvent consisting of hexanes: diethyl ether: glacial acetic acid (75:23:2, v/v/v). After separation, radiolabeled lipids were visualized using the Typhoon 9500 phosphorimaging system (GE). The half maximal inhibitory concentrations (IC50 values) were determined by nonlinear regression analysis of the % inhibition dose response curve using GraphPad Prism (GraphPad Software, Inc., La Jolla, CA).
Table 12 below provides the IC50 values of selected Examples for inhibition of DGAT2 in human hepatocytes in accordance with the above-described assay. Results are reported as geometric mean IC50 values, with the number of replicates (n) shown.

Sequence of DGAT2 in human hepatocytes (Q96PD7 whole entry): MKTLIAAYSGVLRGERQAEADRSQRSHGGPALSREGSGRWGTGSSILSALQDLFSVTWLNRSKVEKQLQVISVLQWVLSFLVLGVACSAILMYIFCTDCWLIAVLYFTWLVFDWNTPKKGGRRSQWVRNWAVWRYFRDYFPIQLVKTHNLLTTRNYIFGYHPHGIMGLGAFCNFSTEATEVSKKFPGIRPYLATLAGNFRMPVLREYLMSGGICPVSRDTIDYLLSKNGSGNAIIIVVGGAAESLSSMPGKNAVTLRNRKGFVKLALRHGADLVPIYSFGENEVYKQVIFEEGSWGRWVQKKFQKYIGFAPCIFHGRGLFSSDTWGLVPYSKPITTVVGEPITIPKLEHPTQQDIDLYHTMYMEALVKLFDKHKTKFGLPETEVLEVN
Sequence of human DGAT2 (hDGAT2) (Q96PD7 whole entry): as above

CLint (+/− Std Dev) (human hepatocytes; trifluoroacetate salt): 4.7 +/− 1.4 μL/min/10^6 cells | CLint (+/− STD Dev) (human liver microsomes; trifluoroacetate salt): 17 µL/min/mg
Compound: CCOc1cccnc1Oc1cncc(-c2ncc(C(=O)N[C@H]3CNCCC3(F)F)cn2)c1 (single isomer, unassigned) [Example 16, N-[(3S)-4,4-difluoropiperidin-3-yl]-2-{5-[(3-ethoxypyridin-2-yl)oxy]pyridin-3-yl}pyrimidine-5-carboxamide, trifluoroacetate salt or N-[(3R)-4,4-difluoropiperidin-3-yl]-2-{5-[(3-ethoxypyridin-2-yl)oxy]pyridin-3-yl}pyrimidine-5-carboxamide, trifluoroacetate salt]

IC50 (human DGAT2 (hDGAT2)): 39 nM | Basic pKa [1]: 4.7
Compound: CCOc1cccnc1Oc1cncc(-c2ncc(C(=O)NC3CCC(C(F)(F)F)NC3)cn2)c1 (single isomer, unassigned; ent-1) [Example 10, 2-{5-[(3-ethoxypyridin-2-yl)oxy]pyridin-3-yl}-N-[6-(trifluoromethyl)piperidin-3-yl]pyrimidine-5-carboxamide, trifluoroacetate salt, ENT-1]

Compound: CCOc1cc(F)cnc1Oc1cncc(-c2ncc(C(=O)N[C@@H]3CNCC[C@H]3F)cn2)c1 [Example 6, 2-{5-[(3-Ethoxy-5-fluoropyridin-2-yl)oxy]pyridin-3-yl}-N-[(3R,4R)-4-fluoropiperidin-3-yl]pyrimidine-5-carboxamide]
IC50 (human DGAT2 (hDGAT2)): 80 nM | IC50 [2]: 2.4 nM

IC50 (human DGAT2 (hDGAT2)): 140 nM | IC50 [2]: 20 nM
Compound: CCOc1cccnc1Oc1cncc(-c2ncc(C(=O)N[C@@H]3CNCC(F)(F)C3)cn2)c1 (single isomer, unassigned) [Example 18, N-[(3S)-5,5-difluoropiperidin-3-yl]-2-{5-[(3-ethoxypyridin-2-yl)oxy]pyridin-3-yl}pyrimidine-5-carboxamide or N-[(3R)-5,5-difluoropiperidin-3-yl]-2-{5-[(3-ethoxypyridin-2-yl)oxy]pyridin-3-yl}pyrimidine-5-carboxamide]

CLint (+/− STD Dev) (human liver microsomes): >290 µL/min/mg
Compound: CCOc1cccnc1Oc1cncc(-c2ncc(C(=O)N[C@H]3CC[C@H](C(F)(F)F)NC3)cn2)c1 (racemic) [Example 9, rac-2-{5-[(3-ethoxypyridin-2-yl)oxy]pyridin-3-yl}-N-[(3R,6S)-6-(trifluoromethyl)piperidin-3-yl]pyrimidine-5-carboxamide or rac-2-{5-[(3-ethoxypyridin-2-yl)oxy]pyridin-3-yl}-N-[(3R,6R)-6-(trifluoromethyl)piperidin-3-yl]pyrimidine-5-carboxamide]

Compound: CCOc1cc(F)cnc1Oc1cncc(-c2ncc(C(=O)N[C@H]3CNCC[C@@H]3F)cn2)c1 [Example 13, 2-{5-[(3-ethoxy-5-fluoropyridin-2-yl)oxy]pyridin-3-yl}-N-[(3S,4S)-4-fluoropiperidin-3-yl]pyrimidine-5-carboxamide, formate salt]
IC50 (human DGAT2 (hDGAT2)): 57 nM | IC50 [2]: 3.8 nM

IC50 (human DGAT2 (hDGAT2)): 230 nM
Compound: CCOc1cccnc1Oc1cncc(-c2ncc(C(=O)NC3CNCC(F)(F)C3)cn2)c1 (stereo not drawn) [Example 17, N-(5,5-difluoropiperidin-3-yl)-2-{5-[(3-ethoxypyridin-2-yl)oxy]pyridin-3-yl}pyrimidine-5-carboxamide]

IC50 (human DGAT2 (hDGAT2)): 110 nM | CLint (+/− STD Dev) (human liver microsomes): <7 µL/min/mg
Compound: CCOc1cccnc1Oc1cncc(-c2ncc(C(=O)N[C@@H]3CNCC[C@H]3F)cn2)c1 [Example 5, 2-{5-[(3-Ethoxypyridin-2-yl)oxy]pyridin-3-yl}-N-[(3R,4R)-4-fluoropiperidin-3-yl]pyrimidine-5-carboxamide]

Basic pKa [1]: 5.3
Compound: CCOc1cccnc1Oc1cncc(-c2ncc(C(=O)N[C@H]3CC[C@H](C(F)(F)F)NC3)cn2)c1 (racemic) [Example 8, rac-2-{5-[(3-ethoxypyridin-2-yl)oxy]pyridin-3-yl}-N-[(3R,6S)-6-(trifluoromethyl)piperidin-3-yl]pyrimidine-5-carboxamide or rac-2-{5-[(3-ethoxypyridin-2-yl)oxy]pyridin-3-yl}-N-[(3R,6R)-6-(trifluoromethyl)piperidin-3-yl]pyrimidine-5-carboxamide]

CLint (+/− Std Dev) (human hepatocytes): 14 +/− 1.4 μL/min/10^6 cells | IC50 (human DGAT2 (hDGAT2)): 240 nM | Basic pKa [1]: 5.2 | CLint (+/− STD Dev) (human liver microsomes): 34 ± 1.9 µL/min/mg
Compound: CCOc1cccnc1Oc1cncc(-c2ncc(C(=O)N[C@@H]3CNCC(F)(F)C3)cn2)c1 (single isomer, unassigned) [Example 19, N-[(3S)-5,5-difluoropiperidin-3-yl]-2-{5-[(3-ethoxypyridin-2-yl)oxy]pyridin-3-yl}pyrimidine-5-carboxamide or N-[(3R)-5,5-difluoropiperidin-3-yl]-2-{5-[(3-ethoxypyridin-2-yl)oxy]pyridin-3-yl}pyrimidine-5-carboxamide]

IC50 (human DGAT2 (hDGAT2)): 3300 nM
Compound: CCOc1cccnc1Oc1cncc(-c2ncc(C(=O)N[C@H]3CNCCC3(F)F)cn2)c1 (single isomer, unassigned) [Example 15, N-[(3S)-4,4-difluoropiperidin-3-yl]-2-{5-[(3-ethoxypyridin-2-yl)oxy]pyridin-3-yl}pyrimidine-5-carboxamide, trifluoroacetate salt or N-[(3R)-4,4-difluoropiperidin-3-yl]-2-{5-[(3-ethoxypyridin-2-yl)oxy]pyridin-3-yl}pyrimidine-5-carboxamide, trifluoroacetate salt]

IC50 (human DGAT2 (hDGAT2)): 14000 nM
Compound: CCOc1cccnc1Oc1cncc(-c2ncc(C(=O)NC3CCCNC3C)cn2)c1 (mixture of isomers) [Example 23, 2-{5-[(3-ethoxypyridin-2-yl)oxy]pyridin-3-yl}-N-(2-methylpiperidin-3-yl)pyrimidine-5-carboxamide, trifluoroacetate salt, mixture of stereoisomers]

CLint (+/− Std Dev) (human hepatocytes): 38 +/− 2.0 μL/min/10^6 cells | IC50 (human DGAT2 (hDGAT2)): 4.4 nM | CLint (+/− STD Dev) (human liver microsomes): >290 µL/min/mg
Compound: CCOc1cccnc1Oc1cncc(-c2ncc(C(=O)NC3CCC(C(F)(F)F)NC3)cn2)c1 (single isomer, unassigned; ent-2) [Example 11, 2-{5-[(3-ethoxypyridin-2-yl)oxy]pyridin-3-yl}-N-[6-(trifluoromethyl)piperidin-3-yl]pyrimidine-5-carboxamide, trifluoroacetate salt, ENT-2]

IC50 (human DGAT2 (hDGAT2)): 590 nM | CLint (+/− STD Dev) (human liver microsomes): <7 µL/min/mg
Compound: CCOc1cccnc1Oc1cncc(-c2ncc(C(=O)N[C@H]3CNCC[C@@H]3F)cn2)c1 [Example 12, 2-{5-[(3-ethoxypyridin-2-yl)oxy]pyridin-3-yl}-N-[(3S,4S)-4-fluoropiperidin-3-yl]pyrimidine-5-carboxamide, trifluoroacetate salt]

IC50 (human DGAT2 (hDGAT2)): 8.6 nM | IC50 [2]: 4.1 nM
Compound: CCOc1cc(F)cnc1Oc1cncc(-c2ncc(C(=O)N[C@@H]3CNC[C@@H](F)C3)cn2)c1 [Example 2, 2-{5-[(3-Ethoxy-5-fluoropyridin-2-yl)oxy]pyridin-3-yl}-N-[(3S,5S)-5-fluoropiperidin-3-yl]pyrimidine-5-carboxamide]

IC50 (human DGAT2 (hDGAT2)): 42 nM
Compound: CCOc1cccnc1Oc1cncc(-c2ncc(C(=O)N[C@H]3CNC[C@H](F)C3)cn2)c1 [Example 7, 2-{5-[(3-ethoxypyridin-2-yl)oxy]pyridin-3-yl}-N-[(3R,5R)-5-fluoropiperidin-3-yl]pyrimidine-5-carboxamide, trifluoroacetate salt]

IC50 (human DGAT2 (hDGAT2)): 2100 nM
Compound: CCOc1cccnc1Oc1cncc(-c2ncc(C(=O)N[C@H]3CNCC[C@H]3C)cn2)c1 (racemic) [Example 20, rac-2-{5-[(3-ethoxypyridin-2-yl)oxy]pyridin-3-yl}-N-[(3R,4R)-4-methylpiperidin-3-yl]pyrimidine-5-carboxamide, trifluoroacetate salt]
